Measured values: paper PMC8745178, “Methyl 2-Halo-4-Substituted-5-Sulfamoyl-Benzoates as High Affinity and Selective Inhibitors of Carbonic Anhydrase IX” (International Journal of Molecular Sciences, 2021)

Experiments:
[1] = solubility observed visually and in absorption spectra; type: physicochemical; parameters: key: low solubility, LS
[2] = target: CAIII (Homo sapiens, UniProt P07451); assay: fluorescent thermal shift assay (FTSA), CAIII; type: binding; conditions: 37 °C; for ΔGintr CAIII: converted from Kd_intr, independent of pH; for ΔGobs CAIII: converted from Kd_obs, pH 7.0, FTSA
[3] = target: CAXIII (Homo sapiens, UniProt Q8N1Q1); assay: fluorescent thermal shift assay (FTSA), CAXIII; type: binding; conditions: 37 °C; for ΔGintr CAXIII: converted from Kd_intr, independent of pH; for ΔGobs CAXIII: converted from Kd_obs, pH 7.0, FTSA
[4] = target: CAIV (Homo sapiens, UniProt P22748); assay: fluorescent thermal shift assay (FTSA), CAIV; type: binding; conditions: 37 °C; for ΔGintr CAIV: converted from Kd_intr, independent of pH; for ΔGobs CAIV: converted from Kd_obs, pH 7.0, FTSA
[5] = target: CAVII (Homo sapiens, UniProt P43166); assay: fluorescent thermal shift assay (FTSA), CAVII; type: binding; conditions: 37 °C; for ΔGobs CAVII: converted from Kd_obs, pH 7.0, FTSA; for ΔGintr CAVII: converted from Kd_intr, independent of pH
[6] = target: CAI (Homo sapiens, UniProt P00915); assay: fluorescent thermal shift assay (FTSA), CAI; type: binding; conditions: 37 °C; for ΔGintr CAI: converted from Kd_intr, independent of pH; for ΔGobs CAI: converted from Kd_obs, pH 7.0, FTSA
[7] = target: CAVA (Homo sapiens, UniProt P35218); assay: fluorescent thermal shift assay (FTSA), CAVA; type: binding; conditions: 37 °C; for ΔGintr CAVA: converted from Kd_intr, independent of pH; for ΔGobs CAVA: converted from Kd_obs, pH 7.0, FTSA
[8] = target: CAXIV (Homo sapiens, UniProt Q9ULX7); assay: fluorescent thermal shift assay (FTSA), CAXIV; type: binding; conditions: 37 °C; for ΔGintr CAXIV: converted from Kd_intr, independent of pH; for ΔGobs CAXIV: converted from Kd_obs, pH 7.0, FTSA
[9] = target: CAVB (Homo sapiens, UniProt Q9Y2D0); assay: fluorescent thermal shift assay (FTSA), CAVB; type: binding; conditions: 37 °C; for ΔGintr CAVB: converted from Kd_intr, independent of pH; for ΔGobs CAVB: converted from Kd_obs, pH 7.0, FTSA
[10] = determination of pKa of the sulfonamide group by UV-VIS spectra at various pH; type: physicochemical; conditions: for f RSO2NH-, fraction of deprotonated sulfonamide: at pH 7.0, calculated from pKa; for pKa: calculated from spectra at various pH, 37 °C
[11] = target: CAVI (Homo sapiens, UniProt P23280); assay: fluorescent thermal shift assay (FTSA), CAVI; type: binding; conditions: 37 °C; for ΔGintr CAVI: converted from Kd_intr, independent of pH; for ΔGobs CAVI: converted from Kd_obs, pH 7.0, FTSA
[12] = target: CAIX (Homo sapiens, UniProt Q16790); assay: fluorescent thermal shift assay (FTSA), CAIX; type: binding; conditions: for ΔGobs CAIX: pH 7
[13] = target: CAII (Homo sapiens, UniProt P00918); assay: fluorescent thermal shift assay (FTSA), CAII; type: binding; conditions: 37 °C; for ΔGintr CAII: converted from Kd_intr, independent of pH; for ΔGobs CAII: converted from Kd_obs, pH 7.0, FTSA
[14] = target: CAXII (Homo sapiens, UniProt O43570); assay: fluorescent thermal shift assay (FTSA), CAXII; type: binding; conditions: 37 °C; for ΔGintr CAXII: converted from Kd_intr, independent of pH; for ΔGobs CAXII: converted from Kd_obs, pH 7.0, FTSA
Sequence of CAXII (O43570 25-354): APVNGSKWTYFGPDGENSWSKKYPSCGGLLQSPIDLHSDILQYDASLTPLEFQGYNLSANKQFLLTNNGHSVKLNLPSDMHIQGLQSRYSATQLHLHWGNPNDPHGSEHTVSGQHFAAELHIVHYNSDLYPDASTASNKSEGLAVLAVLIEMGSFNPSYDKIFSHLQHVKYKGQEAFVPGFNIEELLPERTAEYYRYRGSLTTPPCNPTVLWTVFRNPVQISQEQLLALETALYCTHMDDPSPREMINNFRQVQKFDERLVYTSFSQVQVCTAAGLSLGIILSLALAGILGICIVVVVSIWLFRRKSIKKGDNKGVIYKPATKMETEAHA

Sequence of CAIV (P22748 19-312): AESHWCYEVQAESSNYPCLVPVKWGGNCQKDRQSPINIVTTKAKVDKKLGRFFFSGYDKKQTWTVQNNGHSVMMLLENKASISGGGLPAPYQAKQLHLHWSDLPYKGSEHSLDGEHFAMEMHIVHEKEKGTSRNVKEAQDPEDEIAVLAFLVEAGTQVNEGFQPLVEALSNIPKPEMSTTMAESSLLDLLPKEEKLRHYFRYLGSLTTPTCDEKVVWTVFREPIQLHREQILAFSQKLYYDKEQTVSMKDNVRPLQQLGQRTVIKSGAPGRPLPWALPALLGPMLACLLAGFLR
Sequence of CAVII (P43166 whole entry): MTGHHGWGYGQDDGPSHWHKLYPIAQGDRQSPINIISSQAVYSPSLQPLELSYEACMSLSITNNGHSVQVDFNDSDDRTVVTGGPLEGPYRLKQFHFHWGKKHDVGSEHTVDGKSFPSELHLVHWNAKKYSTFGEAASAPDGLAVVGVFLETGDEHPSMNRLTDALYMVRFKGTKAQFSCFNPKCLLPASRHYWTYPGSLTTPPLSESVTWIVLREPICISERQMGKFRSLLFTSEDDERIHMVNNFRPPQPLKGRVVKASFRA
Sequence of CAXIII (Q8N1Q1 whole entry): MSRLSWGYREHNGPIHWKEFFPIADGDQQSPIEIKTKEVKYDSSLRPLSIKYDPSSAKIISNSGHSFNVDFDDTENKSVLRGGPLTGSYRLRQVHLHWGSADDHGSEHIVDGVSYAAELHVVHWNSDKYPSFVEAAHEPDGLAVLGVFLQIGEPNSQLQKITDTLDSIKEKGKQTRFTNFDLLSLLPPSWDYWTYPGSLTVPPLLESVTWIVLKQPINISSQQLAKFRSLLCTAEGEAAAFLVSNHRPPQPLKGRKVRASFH
Sequence of CAVB (Q9Y2D0 34-317): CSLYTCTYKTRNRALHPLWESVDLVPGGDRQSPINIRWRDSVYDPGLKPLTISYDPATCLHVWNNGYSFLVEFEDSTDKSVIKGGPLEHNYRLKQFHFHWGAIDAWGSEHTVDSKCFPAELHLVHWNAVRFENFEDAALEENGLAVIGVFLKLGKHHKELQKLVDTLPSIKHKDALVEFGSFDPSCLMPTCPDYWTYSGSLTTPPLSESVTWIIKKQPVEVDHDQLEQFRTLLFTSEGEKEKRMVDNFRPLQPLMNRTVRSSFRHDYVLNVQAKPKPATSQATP
Sequence of CAVA (P35218 39-305): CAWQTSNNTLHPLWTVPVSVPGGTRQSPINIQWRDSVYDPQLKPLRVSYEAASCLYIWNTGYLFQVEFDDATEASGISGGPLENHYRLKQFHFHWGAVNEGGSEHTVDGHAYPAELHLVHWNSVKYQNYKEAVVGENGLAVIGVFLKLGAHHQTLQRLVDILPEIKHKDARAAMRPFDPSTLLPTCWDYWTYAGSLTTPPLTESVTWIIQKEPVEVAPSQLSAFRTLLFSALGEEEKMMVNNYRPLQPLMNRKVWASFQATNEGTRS
Sequence of CAVI (P23280 18-308): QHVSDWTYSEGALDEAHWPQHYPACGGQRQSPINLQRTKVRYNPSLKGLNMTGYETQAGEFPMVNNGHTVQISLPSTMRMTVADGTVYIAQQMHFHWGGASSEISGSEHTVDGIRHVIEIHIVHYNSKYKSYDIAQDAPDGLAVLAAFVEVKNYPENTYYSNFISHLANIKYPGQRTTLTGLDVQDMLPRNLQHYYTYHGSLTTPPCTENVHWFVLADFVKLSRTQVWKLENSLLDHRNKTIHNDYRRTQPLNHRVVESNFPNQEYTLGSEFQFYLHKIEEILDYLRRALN
Sequence of CAIII (P07451 whole entry): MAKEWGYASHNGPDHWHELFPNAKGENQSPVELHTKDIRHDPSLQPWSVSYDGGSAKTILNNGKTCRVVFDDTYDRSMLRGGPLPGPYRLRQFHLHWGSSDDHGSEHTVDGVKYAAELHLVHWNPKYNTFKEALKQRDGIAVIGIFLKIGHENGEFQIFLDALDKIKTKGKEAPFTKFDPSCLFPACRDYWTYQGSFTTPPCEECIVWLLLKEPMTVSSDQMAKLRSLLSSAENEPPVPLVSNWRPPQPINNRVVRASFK
Sequence of CAI (P00915 whole entry): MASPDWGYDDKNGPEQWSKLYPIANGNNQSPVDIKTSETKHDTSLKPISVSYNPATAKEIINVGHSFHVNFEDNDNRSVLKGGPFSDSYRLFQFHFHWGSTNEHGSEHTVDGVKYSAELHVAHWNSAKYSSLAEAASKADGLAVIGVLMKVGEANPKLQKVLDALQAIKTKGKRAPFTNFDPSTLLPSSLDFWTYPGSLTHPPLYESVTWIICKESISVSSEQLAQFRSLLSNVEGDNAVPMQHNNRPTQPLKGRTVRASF
Sequence of CAXIV (Q9ULX7 16-337): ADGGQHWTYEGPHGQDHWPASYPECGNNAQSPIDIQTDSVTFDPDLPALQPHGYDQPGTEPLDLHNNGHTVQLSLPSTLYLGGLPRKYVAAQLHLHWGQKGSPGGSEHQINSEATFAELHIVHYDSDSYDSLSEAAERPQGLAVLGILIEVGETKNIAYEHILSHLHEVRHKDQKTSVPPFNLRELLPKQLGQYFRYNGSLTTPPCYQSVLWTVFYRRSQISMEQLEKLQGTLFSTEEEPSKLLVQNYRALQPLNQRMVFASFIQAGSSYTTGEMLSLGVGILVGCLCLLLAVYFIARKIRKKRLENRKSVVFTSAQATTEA

SMILES | ΔGobs CAXIII [3] [kJ/mol] | ΔGintr CAIV [4] [kJ/mol] | ΔGobs CAIV [4] [kJ/mol] | ΔGobs CAVII [5] [kJ/mol] | ΔGintr CAI [6] [kJ/mol] | ΔGobs CAI [6] [kJ/mol] | ΔGintr CAVA [7] [kJ/mol] | ΔGobs CAVA [7] [kJ/mol] | ΔGintr CAXIV [8] [kJ/mol] | ΔGobs CAXIV [8] [kJ/mol] | ΔGintr CAVB [9] [kJ/mol] | ΔGobs CAVB [9] [kJ/mol] | f RSO2NH-, fraction of deprotonated sulfonamide [10] [%] | ΔGintr CAVI [11] [kJ/mol] | ΔGobs CAVI [11] [kJ/mol] | ΔGintr CAIX [12] [kJ/mol] | ΔGobs CAIX [12] [kJ/mol] | ΔGintr CAII [13] [kJ/mol] | ΔGobs CAII [13] [kJ/mol] | ΔGintr CAXII [14] [kJ/mol] | further results
COC(=O)c1cc(S(N)(=O)=O)c(Cl)cc1Sc1cccc2ccccc12 [Compound 5f, Methyl 4-chloro-2-(1-naphthylsulfanyl)-5-sulfamoyl-benzoate] | -43.0 | -42.3 | -24.8 | -35.4 | -41.6 | -27.2 | -39.2 | -23.9 | -41.6 | -24.9 | -53.4 | -37.3 | 0.4 | -49.3 | -28.8 | -63.0 | -45.5 | -57.7 | -41.3 | – | solubility [1]: LS; ΔGintr CAIII [2]: ≥ -39.9 kJ/mol; ΔGobs CAIII [2]: ≥ -22.0 kJ/mol; ΔGintr CAXIII [3]: -57.5 kJ/mol
COC(=O)c1cc(S(N)(=O)=O)c(Cl)cc1S(=O)(=O)c1cccc2ccccc12 [Compound 9f, Methyl 4-chloro-2-(1-naphthylsulfonyl)-5-sulfamoylbenzoate] | -52.9 | -55.0 | -43.3 | -54.5 | -49.3 | -40.6 | – | – | -60.7 | -49.9 | -60.5 | -50.3 | 3.8 | -56.2 | -41.6 | – | -47.5 | -63.4 | -52.9 | -54.2 | ΔGobs CAXII [14]: -43.4 kJ/mol; ΔGintr CAXIII [3]: -61.5 kJ/mol; ΔGintr CAVII [5]: -65.3 kJ/mol; pKa [10]: 8.4
COC(=O)c1cc(S(N)(=O)=O)c(Cl)cc1Sc1ccccc1 [Compound 5a, Methyl 4-chloro-2-(phenylsulfanyl)-5-sulfamoylbenzoate] | -45.7 | -64.1 | -46.6 | -43.3 | -47.0 | -32.5 | ≥ -37.3 | ≥ -22.0 | -62.5 | -45.8 | -55.2 | -39.2 | 0.4 | -60.2 | -39.8 | -68.6 | -51.1 | -60.6 | -44.2 | -65.7 | solubility [1]: LS; ΔGobs CAXII [14]: -48.9 kJ/mol; ΔGintr CAVII [5]: -60.1 kJ/mol
COC(=O)c1cc(S(N)(=O)=O)c(Cl)cc1Cl [Compound 1, Methyl 2,4-dichloro-5-sulfamoyl-benzoate] | -42.0 | -54.6 | -40.0 | -42.6 | -40.3 | -28.8 | -43.1 | -30.7 | -56.2 | -42.4 | -51.7 | -38.6 | 1.2 | -57.7 | -40.2 | -57.5 | -42.9 | -55.8 | -42.4 | -50.9 | ΔGobs CAXII [14]: -37.1 kJ/mol; ΔGintr CAIII [2]: -40.5 kJ/mol; ΔGobs CAIII [2]: -25.5 kJ/mol; ΔGintr CAVII [5]: -56.4 kJ/mol; pKa [10]: 8.9
